One series concerns phospho-ERK1/2. As to conditions: cited from earlier work.
Series [1] relates to mRNA levels in A375 cells. Description: RNA sequencing (transcriptome) of transfected A375 cells. It counts as cell-based, human. As to conditions: 100 nM mimic. The procedure:
A375 cells were plated in duplo in a 6-well plate at 1.5×10^5 cells/well. The next day, cells were transfected with 100 nM miR-3157 or Negative Control #2 mimics, using 15 μl X-tremeGENE. This procedure (plating and transfection) was repeated three times to generate biological replicates. After 72 hrs, total RNA was isolated using TRI reagent (Sigma-Aldrich) according to the manufacturer's protocol. From 30 μg total RNA, the mRNA was isolated using the MicroPoly(A)Purist kit (Ambion), and the mRNA-ONLY Eukaryotic mRNA Isolation Kit (Epicenter). RNAseq libraries were further prepared using the SOLiD™ Total RNA-Seq Kit (Life Technologies (LT)). Fragmentation of the isolated mRNA was performed by incubation in 20 μl 3 mM MgCl/10 mM Tris pH8, for 15 minutes at 95° C. The fragmented mRNA was incubated with SOLiD™ Adapter mix (LT) in STAR hybridization solution (LT), and incubated for 5 minutes at 65° C. After incubation on ice, adapter ligation was performed according to the STAR protocol (LT). The samples were run on a 10% denaturing polyacrylamide gel, and fragments from 180-300 nucleotides were excised. Reverse transcription and PCR amplification of the libraries was performed according to the STAR protocol, followed by excision of 200 to 300 nucleotide fragments from a 6% native polyacrylamide gel. Sequencing of the fragments was performed on the SOLiD™ System (LT). […]

The next series concerns ERK1. Nature of the series: Western blotting of ERK1 protein levels. Format: cell-based, human. Here is the method: Transfection was performed as described in Example 4 in 6-well format. Proteins were isolated using RIPA buffer (50 mM Tris pH 8.0, 150 mM NaCL, 1% NP-40, 0.5% Sodium deoxycholate, 0.1% SDS), supplemented with Protease Inhibitor Cocktail (Sigma) and Halt™ Phosphatase Inhibitor Cocktail (Pierce/Thermo Scientific). Fifteen μg protein was loaded on a 12% Mini-PROTEAN® TGX™ Precast Gel (Bio-Rad), and proteins were transferred to Immun-Blot PVDF Membrane (Bio-Rad). Membranes were blocked in 5% milk or 5% BSA in TBS-T, and incubated O/N at 4° C. with primary antibodies against α-tubulin (1:5000), BRAF, pERK1/2, CDK4, RRM2 (all 1:1000), BCL-2 (1:500) (Santa Cruz), total-ERK1/2 (1:2000), BIRC5, AURKB (1:1000) (Cell Signaling), ERK1 (1:2000) (GeneTex). After incubation with appropriate secondary antibodies and western blot chemiluminescence substrate ECL (Pierce/Thermo Scientific), membranes were exposed to CL-XPosure Film (Pierce/Thermo Scientific).

Series [2] has as its system ERK1/MAPK3, RRM2, AURKB, CDK4, BCL2, BIRC5 mRNA. Nature of the series: Quantitative real-time PCR of mRNA levels in A375 cells. Format: cell-based, human. Conditions: 10 nM mimic, compared to miRNA control (FIG. 12b). The procedure:
Total RNA was isolated using TRI Reagent® (Sigma). To detect miR-3157 and U6 (small nuclear RNA RNU6-1) by qPCR, first 100 ng total RNA was mixed with 50 nM of a miR-3157 specific stem-loop (SL) primer or a U6 Reverse Transcriptase (RT) primer (Table 9), 33 μM dNTPs and 50 units M-MLV Reverse Transcriptase (RT) enzyme (Promega) in a 15 μl SL-RT reaction, and incubated for 30 min at 16° C., 30 min at 42° C. and 5 min at 85° C. For cDNA synthesis of total RNA, 1 μg RNA was mixed with 50 units M-MLV RT enzyme, 0.4 μg random hexamers (Qiagen) and 1 mM dNTPs in a 20 μl cDNA synthesis reaction, and incubated 10 min at 25° C., 120 min at 37° C. and 5 min at 85° C. For miR-3157 and U6 quantification, one μl SL-RT product was used for quantification in a single 20 μl qPCR reaction, using iQ™ SYBR® Green (Bio-Rad), and 0.625 μM forward and reverse primer (Table 9). The PCR protocol was 5 min 95° C. (1×), 10 s 95° C./20 s 60° C./10 s 72° C. (×45). For mRNA quantification, 1 μl cDNA was incubated with 1.25 μM gene-specific forward and reverse primers (Table 10) and iQ™ SYBR® Green in a 20 μl qPCR reaction for 5 min at 95° C. (1×), 15 s 95° C./30 s 60° C./30 s 72° C. (×45). PCR amplification was performed on a CFX96 Touch™ Real-Time PCR Detection System (Bio-Rad).

Where two headings read alike, the source gives them in different places.

As to `CCCS(=O)(=O)Nc1ccc(F)c(C(=O)c2c[nH]c3ncc(-c4ccc(Cl)cc4)cc23)c1F` [Vemurafenib, N-(3-{[5-(4-chlorophenyl)-1H-pyrrolo[2,3-b]pyridin-3-yl]carbonyl}-2,4-difluorophenyl)propane-1-sulfonamide], the pERK result in the series on phospho-ERK1/2 (A375, A2058 and M249 (Atefi et al. 2011, Nazarian et al. 2010)) is given as “downregulates”; with phospho-ERK1/2 (M249-AR4 and M376 (Atefi et al. 2011, Nazarian et al. 2010)), “not”.

As to “hsa-miR-3157-5p: mature miRNA mimic, SEQ ID NO 6 UUCAGCCAGGCUAGUGCAGUCU (listed as RNA, chemistry not given here)”, the “decrease of mRNA levels of CDK4, BCL2 and BIRC5 in the RNAseq analysis” value in series [1] (72 hrs) was 60%. Further, the “predicted targets with reduced mRNA levels” value in series [1] (change at least 60%, p<10^-5, in silico target prediction) was 145 genes. In addition, the ERK1 protein levels result with ERK1 (A375 cells, increasing concentrations of mimic (FIG. 12c)) was “most pronounced”; with ERK1 (A2058, M249, M249-AR4 and M376, increasing concentrations of mimic (FIG. 14a)) it was “not very strongly affected”. In addition, the “mRNA levels of ERK1, RRM2, AURKB, CDK4, BCL2, BIRC5 by qPCR” value in series [2] is “reduced mRNA levels”.

(Values after patent US10201556B2, “Combination for use in treating diseases or conditions associated with melanoma, or treating diseases or conditions associated with activated B-raf pathway” (InteRNA Technologies B.V., priority 2012, dated 2019).)
